How the values were obtained:
Type in all cases: in vivo
Rice (Oryza sativa) [1] = assay: Submerged Soil Treatment Test (Pre-Emergence Treatment), crop injury; settings: 30 g ai/a, granule, transplanted rice, observed 30 days later
Procedure: (§1) 1/5000-are Wagner pots were filled with soil. Seeds or tubers of barnyardgrass, bulrush and Sagittaria pygmaea were seeded or planted under submerged condition. Two pairs of rice seedlings (2-3 leaf stage), which had been reared in advance, were transplanted to each pot and were allowed to germinate in a green house. Each pair consisted of two rice seedlings. On day later (before emergence of weeds), each pot was treated with a granule which had been prepared by processing a predetermined amount of the test composition in accordance with a similar method to the method described in Formulation Example 9. The state of emergence of weeds and the state of injury of rice were observed 30 days later. In the table, the degrees of damages of the test plants and the degrees of injury of rice are shown in a similar manner to Example 2.

Corn (Zea maize) = assay: Upland Soil Application Test, crop injury; settings: 30 g ai/a; soil application before emergence, wettable powder; observed 30 days later
Procedure: (§2) Resin-made 1/2500-are pots were filled with the soil of an upland field. After they were fertilized, soybean, corn and cotton were seeded and 2-3 cm soil covering was applied. Seeds of redroot pigweed, morningglory (Ipomoea purpurea), common lambsquarters, barnyardgrass, green foxtail, large crabgrass, foxtail meadow and johnsongrass had been uniformly mixed with the soil. They were allowed to germinate in a green house. One day later (before emergence of weeds), a wettable powder prepared from a predetermined amount of each test compound in a similar manner to the method described in Formulation Example 1 was diluted with water and then sprayed evenly at an application rate equal to 10 l per are onto the surface of the soil by means of a pressure-operated ULV (ultra low volume) sprayer. Influence to the crops and weeds were observed 30 days later. The results are shown in Table 3, in which the degree of damages of each test plant and the degree of injury to each crop were determined by comparing the air-dried weights of the test plant and crop with those of the corresponding plant and crop in untreated pots and are shown in accordance with the following standard: […]

Soybean (Glycine max) = assay: Upland Soil Application Test, crop injury; settings: 30 g ai/a; soil application before emergence, wettable powder; observed 30 days later
Procedure: as §2

[2] = tested on: Cotton (Gossypium indicum); assay: Upland Soil Application Test, crop injury; settings: 30 g ai/a; soil application before emergence, wettable powder; observed 30 days later
Procedure: as §2

[3] = tested on: Barnyardgrass (Echinochloa crus-galli); assay: Upland Foliar Application Test; settings: 30 g ai/a; foliar application at 2-3 leaf stage, emulsion; observed on the 30th day
Excerpt: (§3) Resin-made 1/10000-are pots were filled with the soil of an upland field. Redroot pigweed, morningglory (Ipomoea pupurea), common lambsquarters, foxtail meadow, johnsongrass, barnyardgrass, green foxtail, large crabgrass, soybean, corn and cotton were separately seeded and were allowed to germinate in a green house. When each plant grew to the stage of 2-3 leaves, an emulsion formulated from a predetermined amount of each test compound in a similar manner to the method described in Formulation Example 11 was diluted with water and then sprayed at a predetermined application rate by means of a pressure-operated ULV (ultra low volume) sprayer. The application rate was controlled at 5 l per are. Influence to the crops and weeds were observed on the 30th day after the spray of the herbicides. The results are shown in Table 4 in which the degree of damages of each test plant and the degree of injury to each crop are shown in a similar manner to Test 2.

[4] = tested on: Crabgrass (Digitaria adsendens); assay: Upland Foliar Application Test; settings: 30 g ai/a; foliar application at 2-3 leaf stage, emulsion; observed on the 30th day
Excerpt: as §3

Common lambsquarters = assay: Upland Foliar Application Test; settings: 30 g ai/a; foliar application at 2-3 leaf stage, emulsion; observed on the 30th day
Excerpt: as §3

Foxtail meadow = assay: Upland Foliar Application Test; settings: 30 g ai/a; foliar application at 2-3 leaf stage, emulsion; observed on the 30th day
Excerpt: as §3

Johnsongrass = assay: Upland Foliar Application Test; settings: 30 g ai/a; foliar application at 2-3 leaf stage, emulsion; observed on the 30th day
Excerpt: as §3

Redroot Pigweed = assay: Upland Foliar Application Test; settings: 30 g ai/a; foliar application at 2-3 leaf stage, emulsion; observed on the 30th day
Excerpt: as §3

[5] = tested on: Foxtail (Setaria viridis); assay: Upland Foliar Application Test; settings: 30 g ai/a; foliar application at 2-3 leaf stage, emulsion; observed on the 30th day
Excerpt: as §3

[6] = tested on: Barnyardgrass (Echinochloa crus-galli); assay: Submerged Soil Treatment Test (Growth Stage Treatment); settings: 30 g ai/a, growth stage treatment (barnyardgrass two-leaf stage), granule, observed 30 days later
Procedure: as §1, with “allowed to grow in a” for “allowed to germinate in a”, “rice seedlings. When the barnyardgrass grew to the two-leaf stage, each pot” for “rice seedlings. On day later (before emergence of weeds), each pot”, “injury of the rice are” for “injury of rice are”

[7] = tested on: Arrowhead sp. (Sagittaria pygmaea); assay: as above; settings: 30 g ai/a, growth stage treatment (barnyardgrass two-leaf stage), granule, observed 30 days later
Procedure: as §1, with “allowed to grow in a” for “allowed to germinate in a”, “rice seedlings. When the barnyardgrass grew to the two-leaf stage, each pot” for “rice seedlings. On day later (before emergence of weeds), each pot”, “injury of the rice are” for “injury of rice are”

[8] = tested on: Bulrush (Scirpus juncoides); assay: as above; settings: 30 g ai/a, growth stage treatment (barnyardgrass two-leaf stage), granule, observed 30 days later
Procedure: as §1, with “allowed to grow in a” for “allowed to germinate in a”, “rice seedlings. When the barnyardgrass grew to the two-leaf stage, each pot” for “rice seedlings. On day later (before emergence of weeds), each pot”, “injury of the rice are” for “injury of rice are”

Rice (Oryza sativa) [9] = assay: Submerged Soil Treatment Test (Growth Stage Treatment), crop injury; settings: 30 g ai/a, growth stage treatment (barnyardgrass two-leaf stage), granule, transplanted rice, observed 30 days later
Procedure: as §1, with “allowed to grow in a” for “allowed to germinate in a”, “rice seedlings. When the barnyardgrass grew to the two-leaf stage, each pot” for “rice seedlings. On day later (before emergence of weeds), each pot”, “injury of the rice are” for “injury of rice are”

| SMILES | Crop injury Rice (Oryza sativa) (Rice (Oryza sativa) [1]) | Crop injury Corn (Zea maize) (Corn (Zea maize)) | Crop injury Soybean (Glycine max) (Soybean (Glycine max)) | Crop injury Cotton (Gossypium indicum) [2] | Herbicidal effects Barnyardgrass (Echinochloa crus-galli) [3] | Herbicidal effects Crabgrass (Digitaria adsendens) [4] | Herbicidal effects Common lambquarters (Common lambsquarters) | Herbicidal effects Foxtail meadow (Foxtail meadow) | Herbicidal effects Johnsongrass (Johnsongrass) | Herbicidal effects Redroot Pigweed (Redroot Pigweed) | Herbicidal effects Foxtail (Setaria viridis) [5] | Herbicidal effects Barnyardgrass (Echinochloa crus-galli) [6] | Herbicidal effects Arrowhead sp. (Sagittaria pygmaea) [7] | Herbicidal effects Bulrush (Scirpus juncoides) [8] | Crop injury Rice (Oryza sativa) (Rice (Oryza sativa) [9]) |
| --- | --- | --- | --- | --- | --- | --- | --- | --- | --- | --- | --- | --- | --- | --- | --- |
| CCOC(=O)c1ncccc1Oc1nc(OC)cc(OC)n1 [A, reference compound] | 5 (0-5 (Death)) | 5 (0-5 (Death)) | 5 (0-5 (Death)) | 5 (0-5 (Death)) | 5 (0-5 (Death)) | 4 (6-10 (Severe damages)) | 4 (6-10 (Severe damages)) | 5 (0-5 (Death)) | 5 (0-5 (Death)) | 4 (6-10 (Severe damages)) | 5 (0-5 (Death)) | 5 (0-5 (Death)) | 4 (6-10 (Severe damages)) | 4 (6-10 (Severe damages)) | 5 (0-5 (Death)) |
| COc1cc(OC)nc(Oc2ccccc2C=O)n1 [B, reference compound] | 5 (0-5 (Death)) | 5 (0-5 (Death)) | 5 (0-5 (Death)) | 5 (0-5 (Death)) | 4 (6-10 (Severe damages)) | 4 (6-10 (Severe damages)) | 3 (11-40 (Medium damages)) | 4 (6-10 (Severe damages)) | 4 (6-10 (Severe damages)) | 3 (11-40 (Medium damages)) | 4 (6-10 (Severe damages)) | 5 (0-5 (Death)) | 4 (6-10 (Severe damages)) | 5 (0-5 (Death)) | 5 (0-5 (Death)) |
| COc1cc(OC)nc(Oc2cccnc2C=O)n1 [Compound No. 1, 4,6-dimethoxy-2-(2-formyl-3-pyridyloxy)pyrimidine] | 1 (71-90 (Slight damages)) | 0 (91-100 (No damages)) | 0 (91-100 (No damages)) | 0 (91-100 (No damages)) | 5 (0-5 (Death)) | 4 (6-10 (Severe damages)) | 5 (0-5 (Death)) | 5 (0-5 (Death)) | 5 (0-5 (Death)) | 5 (0-5 (Death)) | 5 (0-5 (Death)) | 5 (0-5 (Death)) | 4 (6-10 (Severe damages)) | 5 (0-5 (Death)) | 1 (71-90 (Slight damages)) |
| COc1cc(OC)nc(Oc2cccnc2C(OC)OC)n1 [Compound No. 2, 3-(4.6-dimethoxy-2-pyrimidinyloxy)-2-pyridinecarboxaldehyde dimethylacetal] | 0 (91-100 (No damages)) | 0 (91-100 (No damages)) | 0 (91-100 (No damages)) | 0 (91-100 (No damages)) | 4 (6-10 (Severe damages)) | 4 (6-10 (Severe damages)) | 4 (6-10 (Severe damages)) | 4 (6-10 (Severe damages)) | 5 (0-5 (Death)) | 5 (0-5 (Death)) | 4 (6-10 (Severe damages)) | 4 (6-10 (Severe damages)) | 4 (6-10 (Severe damages)) | 4 (6-10 (Severe damages)) | 0 (91-100 (No damages)) |
| CCOC(OCC)c1ncccc1Oc1nc(OC)cc(OC)n1 [Compound No. 3, 3-(4,6-dimethoxy-2-pyrimidinyloxy)-2-pyridinecarboxaldehyde diethylacetal] | 0 (91-100 (No damages)) | 0 (91-100 (No damages)) | 0 (91-100 (No damages)) | 0 (91-100 (No damages)) | 5 (0-5 (Death)) | 5 (0-5 (Death)) | 5 (0-5 (Death)) | 5 (0-5 (Death)) | 5 (0-5 (Death)) | 5 (0-5 (Death)) | 5 (0-5 (Death)) | 5 (0-5 (Death)) | 5 (0-5 (Death)) | 5 (0-5 (Death)) | 0 (91-100 (No damages)) |
| CCCCOC(OCCCC)c1ncccc1Oc1nc(OC)cc(OC)n1 [Compound No. 4] | 0 (91-100 (No damages)) | 0 (91-100 (No damages)) | 0 (91-100 (No damages)) | 0 (91-100 (No damages)) | 5 (0-5 (Death)) | 5 (0-5 (Death)) | 5 (0-5 (Death)) | 5 (0-5 (Death)) | 5 (0-5 (Death)) | 5 (0-5 (Death)) | 5 (0-5 (Death)) | 5 (0-5 (Death)) | 4 (6-10 (Severe damages)) | 4 (6-10 (Severe damages)) | 0 (91-100 (No damages)) |
| COc1cc(OC)nc(Oc2cccnc2C(OC)OC(C)C)n1 (stereo not drawn) [Compound No. 5, 3-(4.6-dimethoxy-2-pyrimidinyloxy)-2-pyridinecarboxaldehyde isopropylmethylacetal] | 0 (91-100 (No damages)) | 0 (91-100 (No damages)) | 0 (91-100 (No damages)) | 0 (91-100 (No damages)) | 5 (0-5 (Death)) | 4 (6-10 (Severe damages)) | 4 (6-10 (Severe damages)) | 5 (0-5 (Death)) | 5 (0-5 (Death)) | 5 (0-5 (Death)) | 5 (0-5 (Death)) | 5 (0-5 (Death)) | 5 (0-5 (Death)) | 5 (0-5 (Death)) | 0 (91-100 (No damages)) |

— US5129937A, “Pyridyloxypyrimidine derivatives, preparation process thereof, and herbicidal compositions containing the same as active ingredients” (Mitsui Toatsu Chemicals Incorporated, priority 1989, dated 1992)
